Measurements taken from the Kinase Knowledgebase extract (Sharma et al. 2016).
pIC50: −log10 of the molar value.

Key:
PIK3CA (human) = PIK3CA (human) (UniProt P42336); experiment: Enzyme Assay
PIK3CD (Human) = PIK3CD (Human) (UniProt O00329); experiment: Enzyme Assay
Sequence of PIK3CD (Human) (O00329 whole entry, looked up): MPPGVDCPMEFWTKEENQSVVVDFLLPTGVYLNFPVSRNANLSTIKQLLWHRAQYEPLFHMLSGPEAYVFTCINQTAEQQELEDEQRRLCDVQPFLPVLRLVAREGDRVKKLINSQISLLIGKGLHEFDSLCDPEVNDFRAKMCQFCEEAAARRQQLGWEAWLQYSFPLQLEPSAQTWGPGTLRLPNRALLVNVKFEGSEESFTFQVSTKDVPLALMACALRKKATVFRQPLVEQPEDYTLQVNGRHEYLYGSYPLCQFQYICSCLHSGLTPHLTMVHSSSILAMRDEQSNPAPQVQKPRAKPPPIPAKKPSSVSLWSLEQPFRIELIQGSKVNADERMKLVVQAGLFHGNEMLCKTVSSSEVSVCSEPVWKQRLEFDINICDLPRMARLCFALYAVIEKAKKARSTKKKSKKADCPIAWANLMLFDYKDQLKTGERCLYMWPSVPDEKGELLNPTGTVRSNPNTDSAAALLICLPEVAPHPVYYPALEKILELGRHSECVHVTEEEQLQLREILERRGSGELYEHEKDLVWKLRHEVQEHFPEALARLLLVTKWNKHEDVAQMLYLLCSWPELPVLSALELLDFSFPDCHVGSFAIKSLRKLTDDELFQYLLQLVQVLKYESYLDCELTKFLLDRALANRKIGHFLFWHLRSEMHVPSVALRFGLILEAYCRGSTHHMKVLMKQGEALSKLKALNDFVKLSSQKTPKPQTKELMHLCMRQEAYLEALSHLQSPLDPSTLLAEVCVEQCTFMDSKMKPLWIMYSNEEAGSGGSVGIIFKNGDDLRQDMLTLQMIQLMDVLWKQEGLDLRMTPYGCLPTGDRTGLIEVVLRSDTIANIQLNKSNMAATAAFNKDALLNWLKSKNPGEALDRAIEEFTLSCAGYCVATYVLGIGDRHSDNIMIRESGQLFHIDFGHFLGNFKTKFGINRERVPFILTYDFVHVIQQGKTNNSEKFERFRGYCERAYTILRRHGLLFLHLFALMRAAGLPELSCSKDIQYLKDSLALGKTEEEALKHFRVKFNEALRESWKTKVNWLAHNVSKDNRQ

Sequence of PIK3CA (human) (P42336 whole entry, looked up): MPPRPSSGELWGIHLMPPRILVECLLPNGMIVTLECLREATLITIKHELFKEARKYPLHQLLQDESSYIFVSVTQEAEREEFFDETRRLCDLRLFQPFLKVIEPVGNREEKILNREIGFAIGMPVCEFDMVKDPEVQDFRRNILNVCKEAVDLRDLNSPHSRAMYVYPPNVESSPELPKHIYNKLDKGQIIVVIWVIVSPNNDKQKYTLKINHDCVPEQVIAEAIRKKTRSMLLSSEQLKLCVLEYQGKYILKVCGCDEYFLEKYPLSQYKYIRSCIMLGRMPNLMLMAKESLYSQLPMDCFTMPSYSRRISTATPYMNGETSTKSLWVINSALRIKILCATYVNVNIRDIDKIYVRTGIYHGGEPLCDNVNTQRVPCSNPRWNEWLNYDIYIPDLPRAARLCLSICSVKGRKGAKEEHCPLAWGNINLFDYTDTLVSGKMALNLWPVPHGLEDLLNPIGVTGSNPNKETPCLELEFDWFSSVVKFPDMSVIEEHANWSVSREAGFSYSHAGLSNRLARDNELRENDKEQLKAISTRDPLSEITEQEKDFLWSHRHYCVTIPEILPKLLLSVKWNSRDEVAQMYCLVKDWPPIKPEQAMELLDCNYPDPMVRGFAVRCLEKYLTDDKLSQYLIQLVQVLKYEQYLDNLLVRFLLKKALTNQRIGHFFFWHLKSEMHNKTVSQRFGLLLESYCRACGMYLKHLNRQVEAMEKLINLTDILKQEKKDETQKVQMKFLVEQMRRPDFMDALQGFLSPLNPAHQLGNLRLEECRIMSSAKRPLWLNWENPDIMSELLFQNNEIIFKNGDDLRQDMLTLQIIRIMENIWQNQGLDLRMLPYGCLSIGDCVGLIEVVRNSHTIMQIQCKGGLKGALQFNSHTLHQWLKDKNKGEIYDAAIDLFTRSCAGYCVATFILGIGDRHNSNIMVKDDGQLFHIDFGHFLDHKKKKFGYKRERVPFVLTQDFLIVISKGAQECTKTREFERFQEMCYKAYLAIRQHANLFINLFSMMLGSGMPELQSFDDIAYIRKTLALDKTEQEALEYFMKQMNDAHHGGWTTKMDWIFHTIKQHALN

Row | SMILES | pIC50 (PIK3CA (human)) | pIC50 (PIK3CD (Human))
1 | Cc1ccccc1-n1c(Cn2nc(-c3ccc(O)c(Cl)c3)c3c(N)ncnc32)cc2cccc(C)c2c1=O | < 5.00 | –
2 | Cc1cccc2cc([C@H](C)Nc3nc(N)ncc3Cl)n(-c3ccccc3)c(=O)c12 | < 5.00 | > 7.00
3 | Cc1cccc2cc([C@H](C)Nc3ncnc4[nH]nc(Cl)c34)n(-c3ccccc3)c(=O)c12 | < 5.00 | > 7.00
4 | Cc1cccc2cc(Cn3nc(-c4ccc(F)c(O)c4)c4c(N)ncnc43)n(C(C)C)c(=O)c12 | < 5.00 | –
5 | CCC(Nc1ncnc2[nH]cnc12)c1cc2cccc(C)c2c(=O)n1-c1ccc(F)cc1 (stereo unspecified) | – | > 7.00
6 | Cc1ccccc1-n1c(Cn2nc(-c3cn[nH]c3)c3c(N)ncnc32)cc2cccc(C)c2c1=O | < 5.00 | –
7 | Cc1ccccc1-n1c(Cn2nc(C(F)F)c3c(N)ncnc32)cc2cccc(C)c2c1=O | – | > 7.00
8 | Cc1ccccc1-n1c(Cn2nc(-c3ccc4cc[nH]c4c3)c3c(N)ncnc32)cc2cccc(C)c2c1=O | < 5.00 | –
9 | Cc1cccc2cc(Cn3nc(-c4cn[nH]c4)c4c(N)ncnc43)n(C3CCN(C)CC3)c(=O)c12 | – | 6.00 to 7.00
10 | Cc1ccccc1-n1c(C(C)Nc2ncnc3[nH]cnc23)cc2cccc(C)c2c1=O (stereo unspecified) | < 5.00 | –
11 | Cc1cccc2cc(Cn3nc(C#C[C@@H](C)O)c4c(N)ncnc43)n(C3CCCC3)c(=O)c12 | < 5.00 | –
12 | Cc1cccc2cc(Cn3nc(-c4ccc5oc(N)nc5c4)c4c(N)ncnc43)n(-c3ccccc3)c(=O)c12 | – | > 7.00
13 | COCc1nn(Cc2cc3cccc(C)c3c(=O)n2-c2ccccc2C)c2ncnc(N)c12 | < 5.00 | < 5.00
14 | CC(=O)c1nn(Cc2cc3cccc(C)c3c(=O)n2-c2ccccc2)c2ncnc(N)c12 | < 5.00 | 6.00 to 7.00
15 | Cc1ccccc1-n1c(Cn2nc(-c3nn[nH]n3)c3c(N)ncnc32)cc2cccc(C)c2c1=O | – | > 7.00
16 | Cc1ccccc1-n1c(Cn2nc(-c3cccc(O)c3)c3c(N)ncnc32)cc2cccc(C)c2c1=O | < 5.00 | –
17 | Cc1cccc2cc([C@H](C)Nc3nc(N)ncc3F)n(C3CC3)c(=O)c12 | < 5.00 | –
18 | Cc1cccc2cc(C(C)Nc3ncnc4[nH]cnc34)n(C3CCC3)c(=O)c12 (stereo unspecified) | < 5.00 | > 7.00
19 | Cc1cccc2cc([C@H](C)NC(=O)c3cnn4ccccc34)n(-c3ccccc3)c(=O)c12 | < 5.00 | < 5.00
20 | Cc1cccc2cc(Cn3nc(-c4cc(O)cc(F)c4)c4c(N)ncnc43)n(C3CCCCC3)c(=O)c12 | < 5.00 | –
21 | CCc1nn(Cc2cc3cccc(C)c3c(=O)n2-c2ccccc2)c2ncnc(N)c12 | – | > 7.00

Row | SMILES | pIC50 (PIK3CA (human)) | pIC50 (PIK3CD (Human))
22 | Cc1cccc2cc(Cn3nc(C#C[C@@H](C)O)c4c(N)ncnc43)n(-c3ccccc3C(C)C)c(=O)c12 | < 5.00 | –
23 | Cc1cccc2cc([C@H](C)Nc3ncnc4[nH]cnc34)n(C(C)C)c(=O)c12 | – | > 7.00
24 | Cc1cccc2cc([C@@H](C)Nc3ncnc4[nH]cnc34)n(C3CC3)c(=O)c12 | – | < 5.00
25 | Cc1ccccc1-n1c(Cn2nc(CO)c3c(N)ncnc32)cc2cccc(C)c2c1=O | < 5.00 | 6.00 to 7.00
26 | CNC(=O)c1nn(Cc2cc3cccc(C)c3c(=O)n2-c2ccccc2)c2ncnc(N)c12 | < 5.00 | 6.00 to 7.00
27 | Cc1ccccc1-n1c(Cn2nc(-c3ccc4nc(N)[nH]c4c3)c3c(N)ncnc32)cc2cccc(C)c2c1=O | – | > 7.00
28 | Cc1cccnc1-n1c(Cn2nc(Cl)c3c(N)ncnc32)cc2cccc(C)c2c1=O | < 5.00 | 6.00 to 7.00
29 | Cc1cccc2cc(Cn3nc(-c4ccc5nc(N)[nH]c5c4)c4c(N)ncnc43)n(-c3ccccc3)c(=O)c12 | – | > 7.00
30 | CCC(Nc1ncnc2[nH]cnc12)c1cc2cccc(C)c2c(=O)n1C1CCN(C)CC1 (stereo unspecified) | < 5.00 | 6.00 to 7.00
31 | Cc1cccc2cc(Cn3nc(C#CC4CC4)c4c(N)ncnc43)n(-c3ccccc3F)c(=O)c12 | – | 6.00 to 7.00
32 | CC(=O)Nc1nc2ccc(-c3nn(Cc4cc5cccc(C)c5c(=O)n4-c4ccccc4)c4ncnc(N)c34)cc2s1 | 6.00 to 7.00 | –
33 | Cc1cccnc1-n1c(Cn2nc(Br)c3c(N)ncnc32)cc2cccc(C)c2c1=O | < 5.00 | 6.00 to 7.00
34 | Cc1cccnc1-n1c(Cn2nc(-c3cccc(O)c3)c3c(N)ncnc32)cc2ccccc2c1=O | – | 6.00 to 7.00
35 | CC(=O)Nc1nc2ccc(-c3nn(Cc4cc5cccc(C)c5c(=O)n4-c4ccccc4C)c4ncnc(N)c34)cc2[nH]1 | – | > 7.00
36 | Cc1ccccc1-n1c(Cn2nc(C=CC(N)=O)c3c(N)ncnc32)cc2cccc(C)c2c1=O | < 5.00 | –
37 | Cc1cccc2cc([C@H](C)Nc3ncnc4[nH]ncc34)n(-c3ccccc3)c(=O)c12 | < 5.00 | 6.00 to 7.00
38 | Cc1cccc2cc(C(C)Nc3ncnc4[nH]cnc34)n(-c3ccccc3)c(=O)c12 (stereo unspecified) | – | > 7.00
39 | Cc1ccccc1-n1c(Cn2nc(-c3ccc4nc(N)oc4c3)c3c(N)ncnc32)cc2cccc(C)c2c1=O | – | > 7.00
40 | Cc1cccc2cc([C@H](C)Nc3nc(N)ncc3C(F)(F)F)n(-c3ccccc3)c(=O)c12 | < 5.00 | > 7.00
41 | Cc1ccccc1-n1c(Cn2nc(-c3ccc(Cl)c(O)c3)c3c(N)ncnc32)cc2cccc(C)c2c1=O | < 5.00 | –
42 | CCC(Nc1ncnc2[nH]cnc12)c1cc2cccc(C)c2c(=O)n1-c1ccccc1 (stereo unspecified) | < 5.00 | > 7.00

Row | SMILES | pIC50 (PIK3CA (human)) | pIC50 (PIK3CD (Human))
43 | Cc1ccccc1-n1c(Cn2nc(C(=O)O)c3c(N)ncnc32)cc2cccc(C)c2c1=O | – | 6.00 to 7.00
44 | Cc1ccccc1-n1c(Cn2nc(-c3ccc4nc(N)ccc4c3)c3c(N)ncnc32)cc2cccc(C)c2c1=O | 6.00 to 7.00 | –
45 | Cc1cccc2cc(Cn3nc(C(C)(C)O)c4c(N)ncnc43)n(-c3ccccc3)c(=O)c12 | < 5.00 | < 5.00
46 | Cc1cccc2cc(Cn3nc(C#C[C@@H](C)O)c4c(N)ncnc43)n(C(C)C)c(=O)c12 | < 5.00 | –
47 | Cc1cccc2cc(Cn3nc(C(N)=O)c4c(N)ncnc43)n(-c3ccccc3)c(=O)c12 | – | 6.00 to 7.00
48 | Cc1cccc2cc(Cn3nc(-c4cc(O)cc(F)c4)c4c(N)ncnc43)n(-c3ccccc3)c(=O)c12 | 6.00 to 7.00 | –
49 | Cc1ccccc1-n1c(Cn2nc(-c3cc(O)cc(F)c3)c3c(N)ncnc32)cc2ccccc2c1=O | < 5.00 | –
50 | CCC(Nc1ncnc2[nH]cnc12)c1cc2cccc(C)c2c(=O)n1C(C)C (stereo unspecified) | < 5.00 | > 7.00
51 | Cc1ccccc1-n1c(Cn2nc(-c3cnc4[nH]ccc4c3)c3c(N)ncnc32)cc2cccc(C)c2c1=O | < 5.00 | –
52 | Cc1cccc2cc(Cn3nc(-c4ccc5nc(N)cn5c4)c4c(N)ncnc43)n(-c3ccccc3)c(=O)c12 | < 5.00 | 6.00 to 7.00
53 | Cc1cccc2cc(Cn3nc(-c4cccc(O)c4)c4c(N)ncnc43)n(C3CCC3)c(=O)c12 | < 5.00 | –
54 | Cc1cccc2cc([C@H](C)Nc3nc(Cl)nc4[nH]cnc34)n(-c3ccccc3)c(=O)c12 | – | > 7.00
55 | Cc1ccccc1-n1c(Cn2nc(-c3ccc4nc(N)sc4c3)c3c(N)ncnc32)cc2cccc(C)c2c1=O | 6.00 to 7.00 | –
56 | Cc1cccc2cc(Cn3nc(-c4cccc(O)c4)c4c(N)ncnc43)n(-c3ccccc3O)c(=O)c12 | < 5.00 | –
57 | Cc1nc2c(N[C@@H](C)c3cc4cccc(C)c4c(=O)n3-c3ccccc3)ncnc2[nH]1 | < 5.00 | –
58 | Cc1cccc2cc([C@H](C)Nc3c(C#N)cnc4ccccc34)n(-c3ccccc3)c(=O)c12 | < 5.00 | –
59 | Cc1ccccc1-n1c(Cn2nc(-c3ccc(O)c(F)c3)c3c(N)ncnc32)cc2cccc(C)c2c1=O | < 5.00 | –
60 | Cc1ccccc1-n1c(Cn2nc(I)c3c(N)ncnc32)cc2cccc(C)c2c1=O | < 5.00 | –
61 | Cc1ccccc1-n1c(Cn2nc(I)c3c(N)ncnc32)cc2ccccc2c1=O | < 5.00 | 6.00 to 7.00
62 | Cc1cccc2cc(C(C)Nc3ncnc4[nH]cnc34)n(-c3ccccc3F)c(=O)c12 (stereo unspecified) | < 5.00 | –
63 | Cc1cccc2cc([C@H](C)Nc3ncnc4[nH]ccc34)n(-c3ccccc3)c(=O)c12 | < 5.00 | > 7.00

Row | SMILES | pIC50 (PIK3CA (human)) | pIC50 (PIK3CD (Human))
64 | Cc1cccc2cc(C(C)Nc3ncnc4[nH]cnc34)n(C3CCCC3)c(=O)c12 (stereo unspecified) | – | > 7.00
65 | Cc1cccc2cc([C@H](C)Nc3nc(F)nc4[nH]cnc34)n(-c3ccccc3)c(=O)c12 | – | > 7.00
66 | Cc1cccnc1-n1c(Cn2nc(-c3ccc(Cl)c(O)c3)c3c(N)ncnc32)cc2cccc(C)c2c1=O | < 5.00 | –
67 | Cc1cccc2cc([C@H](C)Nc3ncnc4[nH]cnc34)n(-c3ccccc3)c(=O)c12 | – | > 7.00
68 | Cc1cccc2cc(Cn3nc(I)c4c(N)ncnc43)n(C3CCCC3)c(=O)c12 | – | 6.00 to 7.00
69 | Cc1cccc2cc(C(C)Nc3ncnc4[nH]cnc34)n(CCN3CCCC3)c(=O)c12 (stereo unspecified) | – | > 7.00
70 | COc1ccccc1-n1c(Cn2nc(-c3cccc(O)c3)c3c(N)ncnc32)cc2cccc(C)c2c1=O | < 5.00 | –
71 | Cc1cccc2cc(Cn3nc(-c4cc(O)cc(F)c4)c4c(N)ncnc43)n(C3CC3)c(=O)c12 | 6.00 to 7.00 | –
72 | Cc1ccccc1-n1c(Cn2nc(C#C[C@H](C)O)c3c(N)ncnc32)cc2cccc(C)c2c1=O | < 5.00 | 6.00 to 7.00
73 | Cc1ccccc1-n1c(Cn2nc(-c3ccc(F)c(O)c3)c3c(N)ncnc32)cc2cccc(C)c2c1=O | < 5.00 | –
74 | Cc1cccnc1-n1c(Cn2nc(-c3ccc4oc(N)nc4c3)c3c(N)ncnc32)cc2cccc(C)c2c1=O | – | > 7.00
75 | Cc1cccc2cc([C@H](C)Nc3ncnc4[nH]cnc34)n(C3CCC3)c(=O)c12 | – | > 7.00
76 | CC(=O)Nc1nc2cc(-c3nn(Cc4cc5cccc(C)c5c(=O)n4-c4ccccc4C)c4ncnc(N)c34)ccc2s1 | < 5.00 | 6.00 to 7.00
77 | COc1ccc(-c2nn(Cc3cc4cccc(C)c4c(=O)n3-c3ccccc3C)c3ncnc(N)c23)cc1 | < 5.00 | 6.00 to 7.00
78 | Cc1cccc2cc(Cn3nc(-c4cccc(O)c4)c4c(N)ncnc43)n(-c3ccccc3Cl)c(=O)c12 | < 5.00 | –
79 | Cc1ccccc1-n1c(Cn2nc(Br)c3c(N)ncnc32)cc2cccc(C)c2c1=O | < 5.00 | –
80 | Cc1cccnc1-n1c(Cn2nc(-c3cc(O)cc(F)c3)c3c(N)ncnc32)cc2cccc(C)c2c1=O | < 5.00 | –
81 | Cc1cccc2cc(C(C)Nc3ncnc4[nH]cnc34)n(CCN3CCOCC3)c(=O)c12 (stereo unspecified) | – | > 7.00
82 | Cc1cccc2cc(Cn3nc(-c4cccc(O)c4)c4c(N)ncnc43)n(C3CCCCC3)c(=O)c12 | < 5.00 | –
83 | Nc1ncnc2c1c(-c1cccc(O)c1)nn2Cc1cc2cccc(F)c2c(=O)n1-c1ccccc1F | – | 6.00 to 7.00
84 | CC(Nc1ncnc2[nH]cnc12)c1cc2ccccc2c(=O)n1C1CCN(C)CC1 (stereo unspecified) | – | 6.00 to 7.00
